Test in all cases: NCI tumour cell line growth inhibition, 48 h
Assay [1] has as its system SF-295 CNS.
The subject of assay [2] is HCC-2998 colon.
Assay [3] has as its system NCI-H23 lung.
The subject of assay [4] is HOP-92 NSCLC.
Assay [5] relates to K-562 leukemia.
In assay [6] the test system is HOP-62 NSCLC.
The test system of assay [7] is CCRF-CEM leukemia.
The test system of assay [8] is COLO 205 colon.
Assay [9] has as its system DU-145 prostate.
For assay [10], the system named is PC-3 prostate.

Structures are written as SMILES.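 Exposure lasted 48 hours, with cells grown in 96-well plates and compounds tested at five concentrations. Abbreviation: GI50, concentration required for 50% inhibition of growth. The concentration for full growth arrest is given as TGI.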 Where only a bound is given, the exact number is not on record here.

For the compound `CCOC(=O)/C=C/c1c(C)[nH]c(=O)[nH]c1=O`, the TGI in [1] was above 250 µM; in assay [2] it was above 250 µM; in assay [3] it was above 250 µM; in assay [4], above 25 µM; in assay [5], above 250 µM; in [6], above 250 µM. The TGI in [7] and in [8] was above 250 µM each time.

On to `O=C(NN1C(=O)C(Cl)C1c1cccc([N+](=O)[O-])c1)c1ccccc1O` (stereo unspecified), for which the TGI in assay [1], in assay [3], in assay [4], in assay [5], in assay [6] and in assay [7] was above 100 µM throughout. The same compound displayed a TGI in [8] above 100 µM.

On to `c1ccc2c(c1)NCc1cc3ccccc3nc1O2`, for which the TGI in [1], in assay [2], in [3], in [4], in assay [5] and in assay [6] was above 100 µM each time. In addition, the TGI in assay [7] and in [8] was above 100 µM each time.

`N#[N+]c1c([O-])c2ccccc2c2ccccc12`: the TGI in assay [1], in assay [2], in assay [3], in [4], in assay [9] and in assay [5] was above 100 µM throughout. The TGI in assay [6], in [7], in assay [10] and in [8] was above 100 µM in each case.

In the case of `O=C1C(CO)=C[C@H](O)[C@H]2O[C@@H]12`, the TGI in assay [1] is 177 µM; in assay [2], above 508 µM; in assay [3], 588 µM; in [4], 525 µM; in [5], 439 µM; in assay [6] it was above 612 µM. Also, the TGI was found to be 418 µM in assay [7] and 209 µM in assay [8].

As for `Cc1cn(-c2cccc(NC(=O)c3ccc(C)c(Nc4nccc(-c5cccnc5)n4)c3)c2)cn1`, the GI50 in assay [2] is 3.05 µM; in assay [3], 3.01 µM; in [4], 1.18 µM; in assay [9] it was 3.73 µM; in [5], 1.47 µM; in [6], 2 µM. The GI50 was 1.23 µM in assay [7], 2.33 µM in assay [10] and 2.09 µM in [8]. In addition, the TGI in assay [2] is 8.02 µM; in assay [3] it was 10 µM; in assay [4] it was 2.51 µM; in [9], 17.9 µM; in [5], 4.17 µM; in assay [6], 3.77 µM. Besides, the figures for the TGI in [7], in assay [10] and in assay [8] were 10.9 µM, 13.5 µM and 3.65 µM, respectively.

In the case of `C/C(=N\NC(=S)N1CCC(N2CCCCC2)CC1)c1ccccn1`, the TGI in assay [1] was 7.12 µM; in assay [2], above 24.3 µM; in assay [3], 12 µM; in [4], 9.79 µM; in assay [9], 11.2 µM; in assay [5], above 100 µM. The TGI is above 19.8 µM in [6], 34.3 µM in assay [7], 10.3 µM in assay [10] and 9.95 µM in [8].

As to `O=c1nc2ccc([N+](=O)[O-])cc2[n+]([O-])[nH]1`, the TGI in assay [1], in assay [2], in [3], in assay [4], in assay [9] and in [5] was above 100 µM throughout. The TGI in assay [6], in assay [7], in assay [10] and in assay [8] was above 100 µM in each case.

In the case of `CCOC(=O)NC(Nc1cc(Cl)ccc1OC)(C(F)(F)F)C(F)(F)F`, the TGI in [2], in assay [3], in [4], in assay [9], in assay [5] and in [6] was above 100 µM each time. Besides, in assay [7], the TGI is above 100 µM.

In the case of `COc1cc(-c2ccc(N=Nc3ccc4c(S(=O)(=O)O)cc(S(=O)(=O)O)c(N)c4c3O)c(OC)c2)ccc1N=Nc1ccc2c(S(=O)(=O)O)cc(S(=O)(=O)O)c(N)c2c1O`, the TGI in assay [1], in assay [2], in assay [3], in assay [4], in assay [5] and in assay [6] was above 100 µM throughout. Moreover, the TGI in assay [7] and in assay [8] was above 100 µM throughout.

As to `COc1ccc(C2=[S+]C(c3ccccc3)(c3ccccc3)c3ccccc32)cc1`, the TGI in assay [1] was 88.8 µM; in assay [2] it was above 100 µM; in assay [3], 74.8 µM; in assay [4], 39.4 µM; in assay [9] it was 65.7 µM; in assay [5], above 100 µM. In addition, the TGI in assay [6] is 79.3 µM; in assay [7], 88.9 µM; in assay [10], above 100 µM; in assay [8] it was 31.3 µM.

With `COc1cccc2c1C(=O)c1c(O)c3c(c(O)c1C2=O)C[C@@](O)(C(=O)COC(=O)c1ccccc1)C[C@@H]3OC1CC(N)C(O)C(C)O1` (stereo partly specified), the GI50 is 0.421 µM in [2]; 0.0638 µM in assay [4]; 0.252 µM in [9]; 0.104 µM in assay [5]; 0.0427 µM in assay [7]; 0.194 µM in [10]. Also, the TGI in [2] is 2.32 µM; in assay [4] it was 0.392 µM; in assay [9], 1.1 µM; in assay [5], 0.327 µM; in [7] it was 0.334 µM; in [10], 0.744 µM.

For `c1ccc2c(c1)c1ccccc1n2Cn1c2ccccc2c2ccccc21`, the TGI in [1], in [3], in assay [4], in assay [9], in assay [5] and in [6] was above 100 µM each time. For the same compound, the TGI in [7] and in assay [10] was above 100 µM throughout.

Take `C/C(=N\NC(=O)c1ccc(Cl)cc1)c1nc2ncccc2[nH]1`: the TGI in [1], in assay [2], in [3], in [9], in [5] and in [6] was above 100 µM each time. For the same compound, the figures for the TGI in assay [7], in assay [10] and in assay [8] were above 100 µM, above 100 µM and 96.3 µM, respectively.

On to `O=C(N/N=C\c1cccc2ccccc12)Nc1ccccc1`, for which the TGI in [1], in [3], in [4], in assay [9], in [5] and in assay [6] was above 100 µM in each case. For the same compound, the TGI in assay [7], in assay [10] and in assay [8] was above 100 µM in each case.

As to `O=c1[nH]c(SCc2cccc([N+](=O)[O-])c2)nc2nc[nH]c12`, the TGI in assay [1], in [3], in assay [4], in assay [9], in assay [5] and in assay [6] was above 100 µM in each case. Further, the TGI in assay [7], in assay [10] and in assay [8] was above 100 µM each time.

For `O=c1oc(-c2ccc(O)cc2)cc2cc(O)ccc12`, the TGI is above 100 µM in assay [1]; 65.9 µM in [2]; 57.6 µM in assay [3]; 96.2 µM in assay [4]; above 100 µM in [9]; 39.8 µM in assay [5]. The TGI is above 100 µM in assay [6], above 100 µM in assay [7], 94 µM in assay [10] and 50.5 µM in [8].

With `Cc1ccc(Cl)cc1N=NC(=O)NNc1cc(Cl)ccc1C`, the TGI was above 100 µM in assay [1]; above 100 µM in assay [2]; 44.3 µM in assay [3]; 35.8 µM in assay [4]; 58.3 µM in assay [9]; above 100 µM in assay [5]. Also, the TGI in assay [6] amounted to 23.6 µM; in assay [7] it was 54.4 µM; in [10] it was 46.3 µM; in assay [8], 41 µM.

The values are drawn from PubChem BioAssay (NCI).
